Legend:
HEK-293 cells = assay: HEK-293 Cytotoxicity Assay (CellTiter-Glo); type: cell-based; details: Homo sapiens, HEK293, 72 h incubation, CellTiter-Glo luminescence
Description: HEK-293 Cytotoxicity Assay
HEK-293 cells are treated with compounds diluted in 0.2% DMSO, dilution is done according to the following protocol: (1) make 500× stock solution in DMSO from 5 mM by 4-fold dilution, total 8 doses were included; (2) make 2× solution in cell culture medium by transferring 0.5 ul 500× stock solution into 125 ul medium; (3) 50 ul of 2× solution is added to cells and incubate for 72 h.
Add 25 μl of the CellTiter-Glo®Reagent [I (Promega)—Cat No. G7572] to each well in the 96-well plate. Mix contents for 2 minutes on an orbital shaker to induce cell lysis. Allow the plate to incubate at room temperature for 10 minutes to stabilize luminescent signal. Record luminescence on BMG PheraStar with luminescence protocol.
(§1) The IC50 value of a compound can be obtained by fitting the following equation. Y=Bottom+(TOP−Bottom)/(1+((IC50/X)^hillslope)) Wherein, X and Y are known values, and IC50, Hillslope, Top and Bottom are the parameters obtained by fitting with software. Y is the inhibition percentage (calculated from the equation), X is the concentration of the compound; IC50 is the concentration of the compound when the 50% inhibition is reached. The smaller the IC50 value is, the stronger the inhibitory ability of the compound is. Vice versa, the higher the IC50 value is, the weaker the ability the inhibitory ability of the compound is; Hillslope represents the slope of the fitted curve, generally around 1*; Bottom represents the minimum value of the curve obtained by data fitting, which is generally 0%±20%; Top represents the maximum value of the curve obtained by data fitting, which is generally 100%±20%. The experimental data were fitted by calculating and analyzing with Dotmatics data analysis software.

BTK = biological target: T1, BTK (Homo sapiens, UniProt Q06187); assay: Cell Degradation: BTK degradation in TMD-8 cells, HTRF assay; type: cell-based; details: 6 h treatment, IC50 (DC50) of BTK degradation
T1 construct: High control=Cell group with added DMSO and without compound, indicating microplate readings without BTK degradation; endogenous in cells; host or cells: TMD-8 cells
Description: TMD-8 cells are treated with compounds in 0.2% DMSO, dilution is done according to the following protocol: (1) make 500× stock solution in DMSO from 1 mM by 6-fold dilution, total 8 doses were included; (2) make 2× solution in cell culture medium by transferring 0.5 μl 500× stock solution into 125 μl medium; (3) 15 μl of 2× solution is added to cells and incubate for 6 h.
After 6 h treatment, add […] 4×lysis buffer to each well; seal the plate and incubate 30 min at room temperature on a plate shaker; Once the cells are lysed, 16 μL of cell lysate are transferred to a PE 384-well HTRF detection plate; 4 μL of pre-mixed HTRF antibodies are added to each well; Cover the plate with a plate sealer, spin 1000 rpm for 1 min, Incubate overnight at room temperature; Read on BMG PheraStar with HTRF protocol (337 nm-665 nm-620 nm).
The inhibition (degradation) percentage of the compound was calculated by the following equation: Inhibition percentage of Compound=100-100× (Signal-low control)/(High control-low control), wherein signal=each test compound group
Dmax is the maximum percentage of inhibition (degradation).
The IC50 (DC50) value of a compound can be obtained by fitting the following equation
Y=Bottom+(TOP-Bottom)/(1+((IC50/X)^hillslope))
as §1, with “Wherein,” for “The IC50 value of a compound can be obtained by fitting the following equation. Y=Bottom+(TOP−Bottom)/(1+((IC50/X)^hillslope)) Wherein,”, “1 *;” for “1*;”

T1 sequence (Q06187 whole entry): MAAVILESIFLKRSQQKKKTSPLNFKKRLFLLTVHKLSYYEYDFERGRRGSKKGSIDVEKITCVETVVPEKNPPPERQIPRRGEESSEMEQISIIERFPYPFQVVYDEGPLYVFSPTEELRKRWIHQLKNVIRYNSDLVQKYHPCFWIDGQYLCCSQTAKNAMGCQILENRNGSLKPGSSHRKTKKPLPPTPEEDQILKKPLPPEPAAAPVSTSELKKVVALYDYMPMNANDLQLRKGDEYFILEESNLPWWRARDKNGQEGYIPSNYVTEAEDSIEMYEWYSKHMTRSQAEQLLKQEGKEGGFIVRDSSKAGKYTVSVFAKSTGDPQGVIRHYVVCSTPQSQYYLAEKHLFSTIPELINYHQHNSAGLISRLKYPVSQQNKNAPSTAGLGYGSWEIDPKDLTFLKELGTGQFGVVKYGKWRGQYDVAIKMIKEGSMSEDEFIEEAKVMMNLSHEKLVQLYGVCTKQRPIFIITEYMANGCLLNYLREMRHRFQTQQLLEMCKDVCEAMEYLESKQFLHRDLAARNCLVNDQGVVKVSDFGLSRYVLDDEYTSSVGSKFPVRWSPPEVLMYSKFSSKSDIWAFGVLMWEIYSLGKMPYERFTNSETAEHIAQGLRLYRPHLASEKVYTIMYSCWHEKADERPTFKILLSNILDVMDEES

Row | Structure (SMILES) | DC50 (BTK) | IC50 (HEK-293 cells)
1 | Cc1cc(-c2ncnc3[nH]c(-c4ccc(C5CCN(CC6CCN(c7cc8c(cc7F)C(=O)N(C7CCC(=O)NC7=O)C8=O)CC6)CC5)cc4)cc23)ccc1CNC(=O)c1nc(C(C)(C)C)no1 (stereo not shown) [Example 2, 3-(tert-butyl)-N-(4-(6-(4-(1-((1-(2-(2,6-dioxopiperidin-3-yl)-6-fluoro-1,3-dioxoisoindolin-5-yl)piperidin-4-yl)methyl)piperidin-4-yl)phenyl)-7H-pyrrolo[2,3-d]pyrimidin-4-yl)-2-methylbenzyl)-1,2,4-oxadiazole-5-carboxamide] | 1.75 nM | > 10000 nM
2 | Cc1cc(-c2ncnc3[nH]c(-c4ccc(C5CCN(CCC6CCN(c7ccc(C8CCC(=O)NC8=O)cc7)CC6)CC5)cc4)cc23)ccc1CNC(=O)c1nc(C(C)(C)C)no1 (stereo not shown) [Example 4, 3-(tert-butyl)-N-(4-(6-(4-(1-(2-(1-(4-(2,6-dioxopiperidin-3-yl)phenyl)piperidin-4-yl)ethyl)piperidin-4-yl)phenyl)-7H-pyrrolo[2,3-d]pyrimidin-4-yl)-2-methylbenzyl)-1,2,4-oxadiazole-5-carboxamide] | 2.3 nM | 3700 nM
3 | Cc1cc(-c2ncnc3[nH]c(-c4ccc(C5CCN(CCCC6CN(c7ccc8c(c7)C(=O)N(C7CCC(=O)NC7=O)C8=O)C6)CC5)cc4)cc23)ccc1CNC(=O)c1nc(C(C)(C)C)no1 (stereo not shown) [Example 6, 3-(tert-butyl)-N-(4-(6-(4-(1-(3-(1-(2-(2,6-dioxopiperidin-3-yl)-1,3-dioxoisoindolin-5-yl)azetidin-3-yl)propyl)piperidin-4-yl)phenyl)-7H-pyrrolo[2,3-d]pyrimidin-4-yl)-2-methylbenzyl)-1,2,4-oxadiazole-5-carboxamide] | 1.7 nM | > 10000 nM
4 | Cc1c(-c2ncnc3[nH]c(-c4ccc(C5CCN(CC6CCN(c7ccc(N8CCC(=O)NC8=O)cc7)CC6)CC5)cc4)cc23)cccc1N1CCn2c(cc3c2CC(C)(C)C3)C1=O [Example 9, 1-(4-(4-((4-(4-(4-(3-(7,7-dimethyl-1-oxo-1,3,4,6,7,8-hexahydro-2H-cyclopenta[4,5]pyrrolo[1,2-a]pyrazin-2-yl)-2-methylphenyl)-7H-pyrrolo[2,3-d]pyrimidin-6-yl)phenyl)piperidin-1-yl)methyl)piperidin-1-yl)phenyl)dihydropyrimidine-2,4(1H,3H)-dione] | 7.2 nM | 746 nM
5 | Cc1c(-c2ncnc3[nH]c(-c4ccc(N5CCN(CC6CCN(c7ccc(N8CCC(=O)NC8=O)cc7)CC6)CC5)nc4)cc23)cccc1N1CCn2c(cc3c2CC(C)(C)C3)C1=O [Example 10, 1-(4-(4-((4-(5-(4-(3-(7,7-dimethyl-1-oxo-1,3,4,6,7,8-hexahydro-2H-cyclopenta[4,5]pyrrolo[1,2-a]pyrazin-2-yl)-2-methylphenyl)-7H-pyrrolo[2,3-d]pyrimidin-6-yl)pyridin-2-yl)piperazin-1-yl)methyl)piperidin-1-yl)phenyl)dihydropyrimidine-2,4(1H,3H)-dione] | 3.4 nM | > 10000 nM
6 | Cc1c(-c2ncnc3[nH]c(-c4ccc(N5CCN(CC6CCN(c7ccc(N8CCC(=O)NC8=O)cc7)CC6)CC5)cc4)cc23)cccc1N1CCn2c(cc3c2CC(C)(C)C3)C1=O [Example 11, 1-(4-(4-((4-(4-(4-(3-(7,7-dimethyl-1-oxo-1,3,4,6,7,8-hexahydro-2H-cyclopenta[4,5]pyrrolo[1,2-a]pyrazin-2-yl)-2-methylphenyl)-7H-pyrrolo[2,3-d]pyrimidin-6-yl)phenyl)piperazin-1-yl)methyl)piperidin-1-yl)phenyl)dihydropyrimidine-2,4(1H,3H)-dione] | 4.7 nM | > 10000 nM
7 | COc1ccc(C(=O)N2CCC(c3ccc(-c4cc5c(-c6ccc(CNC(=O)c7nc(C(C)(C)C)no7)c(C)c6)ncnc5[nH]4)cc3)CC2)cc1N1CCC(=O)NC1=O [Example 12, 3-(tert-butyl)-N-(4-(6-(4-(1-(3-(2,4-dioxotetrahydropyrimidin-1(2H)-yl)-4-methoxybenzoyl)piperidin-4-yl)phenyl)-7H-pyrrolo[2,3-d]pyrimidin-4-yl)-2-methylbenzyl)-1,2,4-oxadiazole-5-carboxamide] | 2 nM | > 10000 nM
8 | Cc1cc(-c2ncnc3[nH]c(-c4c(C)nn(C5CCN(CC6CCN(c7ccc(N8CCC(=O)NC8=O)cc7)CC6)CC5)c4C)cc23)ccc1[C@@H](C)N(C)C(=O)c1nc(C(C)(C)C)no1 [Example 155, (R)-3-(tert-butyl)-N-(1-(4-(6-(1-(1-((1-(4-(2,4-dioxotetrahydropyrimidin-1(2H)-yl)phenyl)piperidin-4-yl)methyl)piperidin-4-yl)-3,5-dimethyl-1H-pyrazol-4-yl)-7H-pyrrolo[2,3-d]pyrimidin-4-yl)-2-methylphenyl)ethyl)-N-methyl-1,2,4-oxadiazole-5-carboxamide] | 13.3 nM | –

Further lines, with some results ahead:

Row | DC50 (BTK) | Structure (SMILES) | IC50 (HEK-293 cells)
9 | 0.54 nM | Cc1cc(-c2ncnc3[nH]c(-c4ccc(C5CCN(CC6CCN(c7ccc(N8CCC(=O)NC8=O)cc7)CC6)CC5)cc4)cc23)ccc1CNC(=O)c1nc(C(C)(C)C)no1 [Example 1, 3-(tert-butyl)-N-(4-(6-(4-(1-((1-(4-(2,4-dioxotetrahydropyrimidin-1(2H)-yl)phenyl)piperidin-4-yl)methyl)piperidin-4-yl)phenyl)-7H-pyrrolo[2,3-d]pyrimidin-4-yl)-2-methylbenzyl)-1,2,4-oxadiazole-5-carboxamide] | > 10000 nM
10 | 3.8 nM | Cc1cc(-c2ncnc3[nH]c(-c4ccc(C5CCN(CCC6CCN(c7ccc(N8CCC(=O)NC8=O)cc7)CC6)CC5)cc4)cc23)ccc1CNC(=O)c1nc(C(C)(C)C)no1 [Example 3, 3-(tert-butyl)-N-(4-(6-(4-(1-(2-(1-(4-(2,4-dioxotetrahydropyrimidin-1(2H)-yl)phenyl)piperidin-4-yl)ethyl)piperidin-4-yl)phenyl)-7H-pyrrolo[2,3-d]pyrimidin-4-yl)-2-methylbenzyl)-1,2,4-oxadiazole-5-carboxamide] | 1700 nM
11 | 1 nM | Cc1cc(-c2ncnc3[nH]c(-c4ccc(C5CCN(CC6CN(c7ccc(N8CCC(=O)NC8=O)cc7)C6)CC5)cc4)cc23)ccc1CNC(=O)c1nc(C(C)(C)C)no1 [Example 5, 3-(tert-butyl)-N-(4-(6-(4-(1-((1-(4-(2,4-dioxotetrahydropyrimidin-1(2H)-yl)phenyl)azetidin-3-yl)methyl)piperidin-4-yl)phenyl)-7H-pyrrolo[2,3-d]pyrimidin-4-yl)-2-methylbenzyl)-1,2,4-oxadiazole-5-carboxamide] | 2960 nM
12 | 1.3 nM | Cc1cc(-c2ncnc3[nH]c(-c4ccc(C5CCN(CC6CCN(c7ccc(N8CCC(=O)NC8=O)cc7)CC6)CC5)cc4)cc23)ccc1[C@@H](C)NC(=O)c1nc(C(C)(C)C)no1 [Example 7, (R)-3-(tert-butyl)-N-(1-(4-(6-(4-(1-((1-(4-(2,4-dioxotetrahydropyrimidin-1(2H)-yl)phenyl)piperidin-4-yl)methyl)piperidin-4-yl)phenyl)-7H-pyrrolo[2,3-d]pyrimidin-4-yl)-2-methylphenyl)ethyl)-1,2,4-oxadiazole-5-carboxamide] | 1600 nM
13 | 40.9 nM | Cc1cc(-c2ncnc3[nH]c(-c4ccc(C5CCN(CC6CCN(c7ccc(N8CCC(=O)NC8=O)cc7)CC6)CC5)cc4)cc23)ccc1[C@H](C)NC(=O)c1nc(C(C)(C)C)no1 [Example 8, (S)-3-(tert-butyl)-N-(1-(4-(6-(4-(1-((1-(4-(2,4-dioxotetrahydropyrimidin-1(2H)-yl)phenyl)piperidin-4-yl)methyl)piperidin-4-yl)phenyl)-7H-pyrrolo[2,3-d]pyrimidin-4-yl)-2-methylphenyl)ethyl)-1,2,4-oxadiazole-5-carboxamide] | 1960 nM
